The record followed here is ChEMBL document CHEMBL1150738, “Plant antitumor agents, 27. Isolation, structure, and structure activity relationships of alkaloids from Fagara macrophylla” (1987).

Assay [1] relates to P388. Briefly: In vivo antitumor activity against mouse P388 cells at 30 to 50 mg/kg, ip relative to control. In kind it is functional. The following applies: for T/C: dose mg/kg 30-50, route intraperitoneal.
In assay [2] the test system is B16. Briefly: Cytotoxicity against mouse B16 cells. In kind it is functional, cell-based.

Activity calls are given as the source filed them. The calls are words filed in the database; no cut-off is given here.

Regarding `COc1cc2cnc3c4cc5c(cc4ccc3c2cc1OC)OCO5`, in assay [1], the result was inactive.
For `COc1cc2c(cc1OC)-c1ccc3cc4c(cc3c1N(C)C2)OCO4`, in assay [1], the result was inactive.
By T/C is commonly meant the result in the treated group divided by that in the control group, in per cent. `COc1cc2c(cc1OC)C(OC)N(C)c1c-2ccc2cc3c(cc12)OCO3` (stereo unspecified): in assay [1], the T/C worked out at 240%.
In the case of `COc1cc2c(=O)n(C)c3c4cc5c(cc4ccc3c2cc1OC)OCO5`, in assay [1], the result was inactive.
In the case of `COc1cc2c[n+](C)c3c4cc5c(cc4ccc3c2cc1OC)OCO5.[Cl-]` [NITIDINE CHLORIDE], the T/C in assay [1] was 240%. The outcome in assay [2] was inactive.
